How the values were obtained:
ferrets [1] = conditions: ferrets treated with cisplatin; cited from earlier work
cancer patients = conditions: cited from earlier work
5-HT M receptors = conditions: cited from earlier work
NMDA receptors = assay: Chick retina assay: protection against excitotoxic action of NMDA; assay type: cell-based; conditions: Table 1, normalized to kynurenic acid vs KA = 1
Description: (§1) Antagonist potencies were established in a chick retina assay which has
(§2) (NMDA, KA and Quis) for excitotoxic properties and EAA antagonists for
(§3) potency in protecting the retina against the excitotoxic action of such
(§4) agonists. The concentration of antagonist required to totally prevent the
(§5) toxic action of an agonist was used to compare antagonists for potency.
(§6) For purposes of illustration, the data were normalized by assigning a
(§7) EAA antagonist properties have been described in each category. Antagonis
(§8) potencies were established in a chick retina assay which has been used by
(§9) Quis) for excitotoxic properties and EAA antagonists for potency in
(§10) protecting the retina against the excitotoxic action of such agonists.
(§11) concentration of antagonist required to totally prevent the toxic action
(§12) of an agonist was used to compare antagonists for potency. For purposes o
(§13) to kynurenic acid vs KA (see table 1) and all other values were adjusted

KA receptors = assay: Chick retina assay: protection against excitotoxic action of KA; assay type: cell-based; conditions: Table 1, normalized to kynurenic acid vs KA = 1
Description: as §1, §2, §3, §4, §5, §6, §7, §8, §9, §10, §11, §12, §13

Quis receptors = assay: Chick retina assay: protection against excitotoxic action of Quis; assay type: cell-based; conditions: Table 1, normalized to kynurenic acid vs KA = 1
Description: as §1, §2, §3, §4, §5, §6, §7, §8, §9, §10, §11, §12, §13

non-NMDA receptors = assay: Chick retina assay: blocking non-NMDA receptors; assay type: cell-based; conditions: chick retinas, relative to Kyn
[2] = system: EAA receptors (NMDA, KA, Quis); conditions: cited from earlier work
dogs = assay: Emesis induction by NMDA in dogs; blockage by D-AP5; assay type: in vivo, dog; conditions: IV, in the vicinity of 5 mg/kg
Experimental: Therefore, each dog (all were young adults) was used for more than one experiment. Typically, one or more tests would be done using NMDA to determine an effective dosage for an individual dog. After the dose was established, an experiment was conducted on a subsequent day in which the dog also received 2 mg/kg D-AP5 subcutaneously (SC), along with the NMDA. On the day after that, NMDA was administered alone, to ensure that the emetic response was unchanged and the dog had not developed tolerance or sustained damage to the emesis-mediating reflexes.

[3] = statement in text; cited from earlier work
ferrets [4] = assay: Emesis induction by cisplatin (8 mg/kg IV) in ferrets; blockage by Kyn; assay type: in vivo, ferret; conditions: cisplatin 8 mg/kg IV alone, 4 ferrets, 5 h observation
Experimental: Four ferrets (a control group) received 8 mg/kg IV cisplatin, a chemotherapeutic drug which has a powerful emetic effect.
Nine ferrets were treated with cisplatin (8 mg/kg IV), and with Kyn, either by bolus (one-shot) injection using 150 mg/kg, or by continuous IV infusion using 50 mg/kg/hour.

ferrets [5] = assay: Emesis induction by cisplatin (10 mg/kg IV) in ferrets; blockage by D-AP5/CNQX; assay type: in vivo, ferret; conditions: cisplatin 10 mg/kg IV alone, five ferrets, 5 h
Experimental: Since suitable agents such as D-AP5 are available that can block NMDA receptors without crossing the BBB, a mixture of CNQX and D-AP5 was tested to see whether a mixture of an NMDA antagonist and a non-NMDA antagonist would have anti-emetic properties. The dosage of cisplatin was increased to 10 mg/kg IV, since only 3 out of 4 of the control animals vomited when 8 mg/kg was used as described in Example 4. This increased the stringency of the test.
Five control animals (ferrets) were treated.
Five test animals were treated by cisplatin, 10 mg/kg IV, followed by intravenous infusion of a mixture of 15 mg/kg/hr CNQX and 5 mg/kg/hr D-AP5.

[6] = of 20 cancer patients, no control group

Compound: CN1C2CCCC1CC(NC(=O)c1nn(C)c3ccccc13)C2 (centres unmarked) [BRL 43694]
- preventing or reducing the severity of emesis (ferrets [1]): effective in preventing or reducing the severity of emesis
- patients with both nausea and vomiting (delayed in onset) (cancer patients; [6]): 9 patients
- patients with mild nausea (cancer patients; [6]): 4 patients
- patients with neither nausea nor vomiting (cancer patients; [6]): 7 patients
- cisplatin patients with nausea and vomiting (cancer patients; of the 5 patients that received cisplatin): 4 patients
- 5-HT M receptor antagonism (5-HT M receptors): more powerful and selective 5-HT M receptor antagonist than metoclopramide

Compound: N#Cc1cc2[nH]c(=O)c(=O)[nH]c2cc1[N+](=O)[O-] [CNQX]
- EAA antagonist potency vs NMDA (NMDA receptors): 5
- EAA antagonist potency vs KA (KA receptors): 30
- EAA antagonist potency vs Quis (Quis receptors): 67
- times more powerful than Kyn in blocking non-NMDA receptors (non-NMDA receptors): approximately 30 times
- block of non-NMDA vs NMDA receptors [2]: block non-NMDA receptors substantially more powerfully than NMDA receptors
- potency compared with kynurenic or 7-chloro-kynurenic acid [2]: significantly more powerful

Compound: CN[C@H](CC(=O)O)C(=O)O [NMDA, N-methyl-D-aspartate]
- emetic response to NMDA (dogs): vomiting can be induced
- penetration of blood brain barriers [3]: does not penetrate the BBB

Compound: N.N.[Cl][Pt][Cl] [cisplatin]
- malaise after cisplatin (ferrets [4]): All four control animals displayed persistent malaise
- vomiting after cisplatin (ferrets [4]): One control animal did not vomit, but the other three vomited repeatedly
- appearance of illness (ferrets [5]): all appeared ill throughout the observation period

From US5039528A, “EAA antagonists as anti-emetic drugs” (priority 1989, dated 1991)
